# Reference: ChEMBL document CHEMBL5724562, “Toxicity screen in isolated B cell assay results for EUbOPEN Chemogenomics Library” (2024)
# System: B cell
# Test: Cytotoxicity screening of chemical probes in isolated B cell assay. Data is normalized to DMSO control, the cell viability average of replicates are reported. Reduction of ATP level more than 20% indicate compromised cell health status.
# Details: human, 0.1 µM
row,Structure (SMILES),Cell Viability
1,COc1ccc2cc(OCC3(C(=O)O)CN(C(=O)c4ccc(F)cc4)C3)ccc2c1 [PF-04418948],98.5812%
2,CS(=O)(=O)N1CCCC(NC(=O)[C@H](CCC2CCCCC2)NC(=O)c2ccc(CNC(=O)c3cnc4ccccn34)cc2)C1 (stereo not given in full) [SR-302],99.1038%
3,Nc1c(C(=O)NCc2ccc(C(=O)NCCCC3CCCCC3)cc2)cnn1-c1ccccc1 [SR-318],97.9561%
4,COc1cccc(CNC(=O)c2nc3scc(COCc4ccc(C(=O)O)cc4)c3c(=O)[nH]2)c1 [T-26c],102.037%
5,COCCOc1nc(-c2ccc(Cl)nc2)nc2c1CN(C(=O)c1ncn3ccccc13)CC2 [THPP-1],97.9791%
6,CN1C(=O)[C@@H](N2CCc3c(nn(Cc4ccccc4)c3Br)C2=O)COc2ccccc21 [TP-030-2],101.749%

# Same assay, conditions: human, 1 µM
row,Structure (SMILES),Cell Viability
1,CO[C@@H](C)c1c(Nc2ccc([C@H](N(C)C(=O)C3CCS(=O)(=O)CC3)C(F)(F)F)cc2)cnc2cc(Cl)nn12 [NVS-MALT1],90.4509%
2,CCNC1(C(N)=O)CCN(c2ncnc3c2nc(-c2ccccc2Cl)n3-c2ccc(Cl)cc2)CC1 [OTENABANT],101.882%
3,Nc1nc(NCc2ccccc2)nc(-c2ccccc2CO)n1 [Ogerin],100.729%
4,C[C@H](c1ccc(F)cc1)N(Cc1cccc(C(=O)O)c1)C(=O)c1cnc2ccccc2c1 [PF-05105679],99.1446%
5,CC(C)Cc1ccc([C@@H](C)C(=O)NS(C)(=O)=O)cc1 [REPARIXIN],94.4279%
6,Cc1c(C(=O)NN2CCCCC2)nn(-c2ccc(Cl)cc2Cl)c1-c1ccc(Cl)cc1 [RIMONABANT],99.45%
7,C[C@@H](OC[C@@]1(c2ccccc2)CC[C@]2(CCC(=O)N2)CN1)c1cc(C(F)(F)F)cc(C(F)(F)F)c1 [ROLAPITANT],97.3629%
8,CC(C)N(CCCCOCC(=O)NS(C)(=O)=O)c1cnc(-c2ccccc2)c(-c2ccccc2)n1 [SELEXIPAG],99.3334%
9,Cn1cnc2c(F)c(Nc3ccc(Br)cc3Cl)c(C(=O)NOCCO)cc21 [SELUMETINIB],92.6054%
10,O=C1c2ccc(Nc3ccc(F)cc3F)cc2CCc2ccc(OC[C@H](O)CO)cc21 [Skepinone-L],96.8594%
11,CN1CCN(C(=O)C(C)(C)c2ccc(C(=O)Nc3cn4cc(-c5ccncc5)ccc4n3)cc2)CC1 [T3-CLK],73.6988%
12,Cc1ccc2c(c1CCC(=O)O)CC[C@@H](NS(=O)(=O)c1ccc(Cl)cc1)C2 [TERUTROBAN],102.464%
13,Cl.Clc1ccc2nsnc2c1NC1=NCCN1 [TIZANIDINE HYDROCHLORIDE],103.384%
14,Cc1cnc(-c2cc(Cl)ccc2F)cc1-n1c(=O)n(CC(N)=O)c2cnccc21 [TP-008],103.993%
15,Cn1nc(C(F)(F)F)cc1-c1cnc(N2CCc3cc(S(=O)(=O)Nc4c(F)cc(Cl)cc4F)cc(N4CCCC4=O)c32)nc1 [TP-020],96.7008%
16,Cc1cc(-n2nc(Cc3cc(F)cc(C(F)(F)F)c3)nc2C)ccc1C(N)=O [TP-024],100.697%
17,CC(=O)Nc1cccc(-n2c(=O)n(C3CC3)c(=O)c3c(Nc4ccc(I)cc4F)n(C)c(=O)c(C)c32)c1 [TRAMETINIB],85.5796%
18,Cc1ccc(/C(=C\CN2CCCC2)c2ccccn2)cc1 [TRIPROLIDINE],98.8273%
19,Cc1ccc2nc(CNCCCOc3ccccc3)cc(O)c2c1 [UCSF924],96.7712%
